The source of these data is patent publication US7855209B2, “Allosteric modulators of the A1 adenosine receptor” (King Pharmaceuticals Research and Development, Inc., priority 2006, dated 2010).

pIC50: −log10 of the molar value.

Series [1] has as its target T1, human A1-adenosine receptor (Homo sapiens, UniProt P30542).
T1 construct: expressed in transfected cells; host or cells: CHO cells (hCHO-A1 clone)
T1 sequence (P30542 1-326): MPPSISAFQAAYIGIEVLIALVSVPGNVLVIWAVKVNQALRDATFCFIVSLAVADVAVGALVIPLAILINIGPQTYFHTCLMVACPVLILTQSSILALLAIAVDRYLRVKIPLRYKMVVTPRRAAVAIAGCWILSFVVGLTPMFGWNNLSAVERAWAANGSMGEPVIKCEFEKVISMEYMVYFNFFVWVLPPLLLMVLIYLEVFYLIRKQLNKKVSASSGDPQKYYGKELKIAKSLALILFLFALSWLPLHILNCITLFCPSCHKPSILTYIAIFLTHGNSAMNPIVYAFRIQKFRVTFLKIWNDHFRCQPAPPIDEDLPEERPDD
Put plainly: Saturation binding of [3H]CCPA to hCHO-A1 membranes (BMAX). The procedure: Membrane Preparation from CHO Cells Transfected with the Human Recombinant A1, A2A and A3 Adenosine Receptors:
The hCHO-A1, hCHO-A2A and hCHO-A3 cell clones are grown adherently and maintained in Dulbecco's modified Eagle's medium with nutrient mixture F12, containing 10% fetal calf serum, penicillin (100 U/mL), streptomycin (100 μg/mL), L-glutamine (2 mM), geneticine (G418, 0.2 mg/mL) at 37° C. in 5% CO2/95% air (Klotz et al. Naunyn-Schmied. Arch Pharm. 1998, 357, 1-9). Cells are split two or three times weekly at a ratio of between 1:5 and 1:10. For membrane preparation the culture medium is removed. […] The protein concentration is determined according to a Bio-Rad method (Bradford, 1976) with bovine albumin as a standard reference. […]
To determine the effect of the compounds of the present invention on the binding to A1, A2A and A3 receptors, membranes from hCHO-A1, hCHO-A2A, hCHO-A3 are incubated in a buffer solution in the absence and in the presence of the examined compounds. […] Bound and free radioactivity are separated by filtering the assay mixture through Whatman GF/B glass fibre filters using a Micro-mate 196 cell harvester (Packard Instrument Company). The filter bound radioactivity was counted on Top Count Microplate Scintillation Counter (efficacy 57%) with Micro-Scint 20. […]

Series [2] concerns the target T1, human A1-adenosine receptor. Put plainly: Functional assay measuring the cAMP level in CHO cells expressing the human A1-adenosine receptor. Format: cell-based. The procedure:
Measurement of cAMP Enhancement in CHO Cells (Functional Assay):
Allosteric enhancement is measured as the action of a test compound at different concentrations (0.01, 0.1, 1 and 10 μM) to reduce the cAMP content of hCHO-A1 cells. To initiate an experiment, growth medium is removed from the 12-well plates and cells are washed once with warm Hanks' buffered saline. The wash solution is then removed and replaced with fresh Hanks' solution containing forskolin (1 μM), rolipram (20 μM), N^6-cyclopentyladenosine (CPA, 0.01 nM), adenosine deaminase (2 U/mL), and the test compound. Forskolin is used to stimulate the activity of adenylyl cyclase, rolipram to inhibit cAMP phosphodiesterase, adenosine deaminase to degrade endogenous adenosine, and CPA to cause a small increase of the number of activated adenosine receptors. […] The content of cAMP in acidified extracts of cells is determined by radioimmunoassay as previously described (Kollias-Baker et al. J. Pharmacol. Exp. Ther. 1997, 281, 761-768). Because the magnitude of the effects of allosteric modulators on hCHO-A1 cells change subtly with passage number and differ slightly among different aliquots of cells, the actions of the test compounds and the action of a reference compound (PD 81,723) are assessed in each experiment. […]
A general note: cAMP levels reflect the balance of adenylyl cyclase and phosphodiesterase activity.

The term melting point denotes the temperature, or range, at which the solid turns liquid. For `Cc1sc(N)c(C(=O)c2ccc(Cl)cc2)c1CN1CCN(c2cccc(F)c2)CC1` [Example 88, {2-Amino-4-[(4-(3-fluorophenyl)piperazin-1-yl)methyl]-5-methylthiophen-3-yl}(4-chlorophenyl)methanone], the melting point was 140 to 141 °C.

For the molecule `Nc1scc(CN2CCC3(CC2)Oc2cccc(F)c2O3)c1C(=O)c1ccc(Cl)cc1` [Example 60, {2-Amino-4-(4-fluorospiro[benzo[d][1,3]-dioxole-2,4′-piperidine]-1′-ylmethyl)thiophen-3-yl}(4-chlorophenyl)methanone], the “increase in the BMAX value of the agonist [3H]CCPA” value in series [1] is recorded as “about 6 fold”.

A word on the pIC50: it is the IC50 on a negative log10 scale, so that one unit is a factor of ten. Regarding `Nc1scc(CN2CCN(c3ccc(Cl)cc3)CC2)c1C(=O)c1ccc(Cl)cc1` [Example 4, {2-Amino-4-[4-((4-chlorophenyl)piperazin-1-yl)methyl]thiophen-3-yl}(4-chlorophenyl)methanone], in series [1] (at 10 μM concentration, human A1 adenosine receptors), the “increase of the BMAX value of the agonist [3H]CCPA” value is recorded as “up to 600%”. The molecule further showed a pIC50 in series [2] of roughly 7.00.
